{"source": "patent US7939621B2", "about": "“Oligocarbonate molecular transporters” (International Business Machines Corporation, priority 2009, dated 2011)", "key": {"Jurkat cells [1]": {"system": "Jurkat cells", "assay": "Cellular uptake assay by flow cytometry", "type": "cell-based", "conditions": "5, 12.5, 25 μM, pH 7.2 PBS, 5 min, 23° C.", "experimental": "Dansyl-tagged oligomers and octaarginine control were brought up in pH 7.2 PBS buffer at 5 μM, 12.5 μM, and 25 μM concentrations. […] Cells were plated on a microtiter plate at 3.0×10^6 cells/mL with 200 μL/well. The plate was centrifuged (1300 rpm for 3 min), media removed, and cells resuspended in PBS buffer twice.\nCompounds 6(a-c) and the r8 control at varying concentrations were incubated with the cells for 5 minutes at 23° C. The microtiter plates were centrifuged and the cells were isolated, washed with PBS and resuspended in PBS containing propidium iodide (3 μg/mL, 0.01%). The cells were analyzed using a fluorescent flow cytometer (Vantoo, Stanford University) equipped with a UV laser for excitation of the dansyl fluorophore, and cells stained with propidium iodide were excluded from the analysis. The data presented are the mean fluorescent signals for the 20,000 cells analyzed."}, "Jurkat cells [2]": {"system": "Jurkat cells", "assay": "MTT toxicity assay", "type": "cell-based", "conditions": "Homo sapiens, 24 h with compound at 37° C., then 24 h fresh media", "experimental": "Jurkat cells grown in 10% FBS in RPMI media 1640 (+ glutamine) were plated at 5-10×10^4 cells/mL on a 96-well microtiter plate in the same media. In a second 96-well plate, compound was serially diluted in triplicate over 20 wells in columns 2-11 and rows 1-3 and 5-7; typical dilutions spanned the concentration range of 400 μM to 20 nM. Columns 1 and 12 contained no cells and no compound, respectively. Rows 4 and 8 contained a serial dilution of colchicine as internal control; colchicine concentrations were generally much lower than compound concentrations in order to obtain an EC50 (half-maximal effective concentration).\nCompounds were added to the plate containing cells and the cells were incubated at 37° C. for 24 h, at which point the plate was centrifuged, compound removed, and the cells resuspended in fresh media. […] Cells were incubated with MTT for 3 hours at 37° C., 150 μL solubilizing solution (10% triton X-100, 90% 0.1N HCl in isopropanol) was added to each well, and colorimetry data obtained on a plate reader.\nNumerical data from plate reader was standardized using values from columns 1 and 12 and curve fitting was performed using Graph Pad Prism software to obtain an EC50 for each compound."}}, "data": [{"smiles": "CN(C)c1cccc2c(S(=O)(=O)NCCO)cccc12", "note": "[Compound 4, 5-(dimethylamino)-N-(2-hydroxyethyl)naphthalene-1-sulfonamide, reference compound]", "values": [{"measurement": "Cellular uptake into Jurkat cells", "setting": "Jurkat cells [1]", "result": "does not enter Jurkat cells"}, {"measurement": "EC50", "setting": "Jurkat cells [2]", "result": 311, "unit": "µM"}]}]}
